# Experimental data as given in PMC12677052, “Identification and rescue of congenital hyperinsulinism-associated ABCC8 mutations that impair KATP channel trafficking” (The Journal of Biological Chemistry, 2025).
# What was measured:
# Type in all cases: cell-based
# [1] = molecular target: T1, sulfonylurea receptor 1 (SUR1) (Homo sapiens, UniProt Q09428); assay: Rb+ efflux inhibition in cells after […] overnight treatment and washout
# T1 construct: gene ABCC8; human FLAG-tagged SUR1 (f-SUR1) coexpressed with human Kir6.2 in COSm6 cells; with Kir6.2 (KCNJ11)
# [2] = molecular target: T1, sulfonylurea receptor 1 (SUR1); assay: inside-out patch-clamp dose-response
# [3] = molecular target: T2, sulfonylurea receptor 1 (SUR1) (Homo sapiens, UniProt Q09428, Y124F); assay: inside-out patch-clamp dose-response
# T2 construct: gene ABCC8; human FLAG-tagged SUR1 (f-SUR1) coexpressed with human Kir6.2 in COSm6 cells; with Kir6.2 (KCNJ11)
# [4] = molecular target: T3, sulfonylurea receptor 1 (SUR1) (Homo sapiens, UniProt Q09428, W143R); assay: pharmacochaperone rescue in cells at […] (western blot, Rb+ efflux)
# T3 construct: gene ABCC8; human FLAG-tagged SUR1 (f-SUR1) coexpressed with human Kir6.2 in COSm6 cells; with Kir6.2 (KCNJ11)
# T3 sequence (Q09428 whole entry W143R): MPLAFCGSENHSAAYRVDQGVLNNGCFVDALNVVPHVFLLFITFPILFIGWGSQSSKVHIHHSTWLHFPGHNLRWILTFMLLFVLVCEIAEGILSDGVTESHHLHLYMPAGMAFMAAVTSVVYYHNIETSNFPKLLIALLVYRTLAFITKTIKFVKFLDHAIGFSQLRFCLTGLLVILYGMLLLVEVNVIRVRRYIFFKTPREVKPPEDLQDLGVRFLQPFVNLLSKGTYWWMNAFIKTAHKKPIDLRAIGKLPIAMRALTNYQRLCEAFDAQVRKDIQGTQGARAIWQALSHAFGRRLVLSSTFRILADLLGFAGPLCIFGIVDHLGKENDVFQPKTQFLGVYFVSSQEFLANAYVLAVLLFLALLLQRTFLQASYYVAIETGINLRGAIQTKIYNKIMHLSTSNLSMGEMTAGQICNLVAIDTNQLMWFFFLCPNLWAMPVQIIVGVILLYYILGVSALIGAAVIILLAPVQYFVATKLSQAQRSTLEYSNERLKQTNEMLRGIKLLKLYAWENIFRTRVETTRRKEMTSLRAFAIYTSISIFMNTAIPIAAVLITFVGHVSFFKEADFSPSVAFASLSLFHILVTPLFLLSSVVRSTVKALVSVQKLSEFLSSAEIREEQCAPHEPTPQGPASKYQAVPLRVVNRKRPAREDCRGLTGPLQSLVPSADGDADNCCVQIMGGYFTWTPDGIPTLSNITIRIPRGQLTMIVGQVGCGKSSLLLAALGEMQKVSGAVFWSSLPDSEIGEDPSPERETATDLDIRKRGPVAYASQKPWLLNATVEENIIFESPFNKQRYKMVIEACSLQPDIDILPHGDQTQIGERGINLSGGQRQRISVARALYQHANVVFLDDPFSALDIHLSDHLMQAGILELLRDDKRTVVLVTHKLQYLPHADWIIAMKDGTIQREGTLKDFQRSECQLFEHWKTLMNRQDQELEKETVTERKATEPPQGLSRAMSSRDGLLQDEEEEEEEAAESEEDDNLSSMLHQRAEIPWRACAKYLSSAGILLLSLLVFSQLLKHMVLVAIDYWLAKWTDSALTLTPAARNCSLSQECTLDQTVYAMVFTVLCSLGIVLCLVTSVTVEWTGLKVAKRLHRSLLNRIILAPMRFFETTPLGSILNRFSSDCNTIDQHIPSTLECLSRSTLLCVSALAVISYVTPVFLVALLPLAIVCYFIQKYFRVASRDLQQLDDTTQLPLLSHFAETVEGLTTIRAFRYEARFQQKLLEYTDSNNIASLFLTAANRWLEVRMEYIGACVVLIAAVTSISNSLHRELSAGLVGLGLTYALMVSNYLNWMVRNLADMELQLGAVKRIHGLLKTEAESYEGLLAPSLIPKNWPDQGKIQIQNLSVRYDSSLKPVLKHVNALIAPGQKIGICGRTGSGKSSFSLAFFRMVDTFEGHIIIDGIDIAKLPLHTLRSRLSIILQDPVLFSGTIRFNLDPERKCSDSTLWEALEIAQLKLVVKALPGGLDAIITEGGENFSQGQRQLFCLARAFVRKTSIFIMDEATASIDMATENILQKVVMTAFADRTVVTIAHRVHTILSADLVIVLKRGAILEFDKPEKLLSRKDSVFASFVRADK
# T3 sequence (Q14654 whole entry partner): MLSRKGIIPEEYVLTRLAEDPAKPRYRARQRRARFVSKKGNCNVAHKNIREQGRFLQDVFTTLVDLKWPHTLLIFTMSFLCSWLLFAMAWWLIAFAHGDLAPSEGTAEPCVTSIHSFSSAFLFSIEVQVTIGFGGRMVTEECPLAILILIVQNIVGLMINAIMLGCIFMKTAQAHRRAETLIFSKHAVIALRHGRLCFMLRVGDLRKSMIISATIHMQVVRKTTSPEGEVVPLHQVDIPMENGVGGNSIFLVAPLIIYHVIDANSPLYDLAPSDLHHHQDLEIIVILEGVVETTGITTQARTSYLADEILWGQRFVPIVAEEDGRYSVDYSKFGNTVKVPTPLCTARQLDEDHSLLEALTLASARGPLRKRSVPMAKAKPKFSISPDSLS
# T1 sequence (Q09428 whole entry): as the sequence (Q09428 whole entry W143R) above, with R143W counted along it
# T1 sequence (Q14654 whole entry partner): as the sequence (Q14654 whole entry partner) above
# T2 sequence (Q09428 whole entry Y124F): as the sequence (Q09428 whole entry W143R) above, with Y124F, R143W counted along it
# T2 sequence (Q14654 whole entry, further chain): as the sequence (Q14654 whole entry partner) above
compound,measurement,setting,value
"COc1ccc(Cl)cc1C(=O)NCCc1ccc(S(=O)(=O)NC(=O)NC2CCCCC2)cc1 [GBC, glibenclamide]",Rb+ efflux inhibition in cells after 10 μM overnight treatment and washout,[1],This reduction is due to GBC inhibition of channels already present at the cell surface.
Nc1ncnc2c1ncn2[C@@H]1O[C@H](COP(=O)(O)OP(=O)(O)O)[C@@H](O)[C@H]1O [MgADP],EC50,[2],62.2 ± 18.8 µM
same,EC50,[3],224 ± 47.9 µM
"CCCCNC(=O)NS(=O)(=O)c1ccc(C)cc1 [Tolb, tolbutamide]","pharmacochaperone rescue in cells at 200 μM (western blot, Rb+ efflux)",[4],"N32K, P133R, W143R, and Y230C mutations showed clear albeit variable response to the three pharmacochaperones"
